# Test: log P by HPLC on reversed-phase column (C18), EEC Directive 79/831 Annex V.A8
# Type: physicochemical
# Settings: C18, 40° C., 0.1% aqueous formic acid and acetonitrile, gradient 10% to 90% acetonitrile
# Method: Temperature: 40° C.; Mobile phases: 0.1% aqueous formic acid and acetonitrile; linear gradient from 10% acetonitrile to 90% acetonitrile.
row,SMILES,logP
1,Cc1nn(C)cc1C(=O)N(C1CC1)C(C)c1cccnc1Cl (racemic) [Example 78],1.58
2,CC(c1cccnc1Cl)N(C(=O)c1cn(C)nc1C(F)F)C1CC1 (racemic) [Example 81],1.88
3,Cc1cc(C(=O)N(C2CC2)C(C)c2cccnc2Cl)no1 (racemic) [Example 83],2.07
4,Cc1cc(C(=O)N(C2CC2)C(C)c2cccnc2Cl)nn1C (racemic) [Example 84],1.78
5,Cc1cc(C(=O)N(C2CC2)C(C)c2cnc(Cl)c(Cl)c2)c(C)o1 (stereo not shown) [Example 3],3.7
6,Cc1nn(C)c(F)c1C(=O)N(C1CC1)C(C)c1cnc(Cl)c(Cl)c1 (stereo not shown) [Example 4],2.56
7,CC(c1cnc(Cl)c(Cl)c1)N(C(=O)c1cn(C)nc1C(F)F)C1CC1 (stereo not shown) [Example 5],2.67
8,Cn1cc(C(=O)N(Cc2ccncc2)C2CC2)c(C(F)(F)F)n1 [Example 11],0.59
9,Cc1nc(C(F)(F)F)c(C(=O)N(Cc2ccncc2)C2CC2)s1 [Example 13],0.93
10,Cc1nc(C(F)F)c(C(=O)N(Cc2ccncc2)C2CC2)s1 [Example 14],0.58
11,Cn1nc(C(=O)N(Cc2ccncc2)C2CC2)c(C(F)(F)F)n1 [Example 15],1.03
12,Cn1cc(C(=O)N(Cc2ccncc2)C2CC2)c(C(F)(F)F)c1 [Example 16],0.99
13,CCC(c1ccncc1)N(C(=O)c1cn(C)nc1C(F)F)C1CC1 (stereo not shown) [Example 18],1.79
14,Cc1nc(C(F)F)c(C(=O)N(C2CC2)C(C)c2ncc(Cl)cc2Cl)s1 (stereo not shown) [Example 20],3.64
15,Cc1nn(C)cc1C(=O)N(C1CC1)C(C)c1ncc(Cl)cc1Cl (stereo not shown) [Example 27],2.4
16,Cc1nn(C)c(F)c1C(=O)N(C1CC1)C(C)c1ncc(Cl)cc1Cl (stereo not shown) [Example 28],2.77
17,Cc1nn(C)c(F)c1C(=S)N(C1CC1)C(C)c1ncc(Cl)cc1Cl (stereo not shown) [Example 30],3.9
18,CC(c1ncc(Cl)cc1Cl)N(C(=O)c1cn(C)nc1C(F)F)C1CC1 (stereo not shown) [Example 31],3.01
19,CC(c1ncc(Cl)cc1Cl)N(C(=S)c1cn(C)nc1C(F)F)C1CC1 (stereo not shown) [Example 32],4.01
20,CCc1nn(C)c(F)c1C(=O)N(C1CC1)C(C)c1ncc(Cl)cc1Cl (stereo not shown) [Example 33],3.23

row,SMILES,logP
1,CC(c1cnccn1)N(C(=O)c1ccsc1I)C1CC1 (stereo not shown) [Example 37],2.38
2,CC(c1cnccn1)N(C(=O)c1ccco1)C1CC1 (stereo not shown) [Example 38],1.62
3,Cc1nc(C(=O)N(C2CC2)C(C)c2cnccn2)c(C)o1 (stereo not shown) [Example 39],1.55
4,Cc1ccoc1C(=O)N(C1CC1)C(C)c1cnccn1 (stereo not shown) [Example 41],2.04
5,CC(c1cnccn1)N(C(=S)c1cn(C)nc1C(F)F)C1CC1 (stereo not shown) [Example 43],2.05
6,Cc1ncoc1C(=O)N(C1CC1)C(C)c1cnccn1 (stereo not shown) [Example 44],1.37
7,Cc1cc(C(=O)N(C2CC2)C(C)c2cnccn2)no1 (stereo not shown) [Example 45],1.65
8,Cc1cc(C(=O)N(C2CC2)C(C)c2cnccn2)nn1C (stereo not shown) [Example 46],1.45
9,O=C(c1sccc1I)N(Cc1ccc(Cl)cn1)C1CC1 [Example 53],3.17
10,Cn1cc(C(=O)N(Cc2ccc(Cl)nc2)C2CC2)c(C(F)(F)F)n1 [Example 65],2.02
11,O=C(c1ccsc1I)N(Cc1ccc(Cl)nc1)C1CC1 [Example 66],2.67
12,Cn1cc(C(=O)N(Cc2ccc(Cl)nc2)C2CC2)c(C(F)F)n1 [Example 72],1.97
13,Cn1cc(C(=S)N(Cc2ccc(Cl)nc2)C2CC2)c(C(F)F)n1 [Example 73],2.58
14,COc1nn(C)cc1C(=O)N(Cc1ccc(Cl)nc1)C1CC1 [Example 74],1.56
15,Cc1nc(C(=O)N(Cc2c(Cl)cncc2Cl)C2CC2)c(C)o1 [Example 99],2.18
16,Cc1nn(C)c(F)c1C(=O)N(Cc1c(Cl)cncc1Cl)C1CC1 [Example 102],2.01
17,Cn1cc(C(=S)N(Cc2c(Cl)cncc2Cl)C2CC2)c(C(F)F)n1 [Example 104],2.93
18,Cc1ncoc1C(=O)N(Cc1c(Cl)cncc1Cl)C1CC1 [Example 105],2.04
19,Cc1cc(C(=O)N(Cc2c(Cl)cncc2Cl)C2CC2)no1 [Example 106],2.4

# Other lines, results leading:
row,logP,SMILES
1,3.14,CC(c1cnc(Cl)c(Cl)c1)N(C(=O)c1cn(C)nc1C(F)(F)F)C1CC1 (stereo not shown) [Example 1]
2,3.34,CC(c1cnc(Cl)c(Cl)c1)N(C(=O)c1cn(C)cc1C(F)(F)F)C1CC1 (stereo not shown) [Example 2]
3,2.29,COc1nn(C)cc1C(=O)N(C1CC1)C(C)c1cnc(Cl)c(Cl)c1 (stereo not shown) [Example 6]
4,0.43,Cc1ccc(CN(C(=O)c2c(C)nn(C)c2F)C2CC2)cn1 [Example 7]
5,0.52,Cc1ccc(CN(C(=O)c2cn(C)nc2C(F)F)C2CC2)cn1 [Example 8]
6,2.28,Cc1nn(C)c(F)c1C(=O)N(Cc1cnc(Cl)cc1Cl)C1CC1 [Example 9]
7,2.46,Cn1cc(C(=O)N(Cc2cnc(Cl)cc2Cl)C2CC2)c(C(F)F)n1 [Example 10]
8,3.21,Cn1cc(C(=O)N(Cc2ncc(Cl)cc2Cl)C2CC2)c(C(F)(F)F)n1 [Example 21]
9,2.54,CCOc1nn(C)cc1C(=O)N(Cc1ncc(Cl)cc1Cl)C1CC1 [Example 22]
10,3.76,Cc1nc(C(F)(F)F)c(C(=O)N(Cc2ncc(Cl)cc2Cl)C2CC2)s1 [Example 23]
11,3.42,Cc1nc(C(F)F)c(C(=O)N(Cc2ncc(Cl)cc2Cl)C2CC2)s1 [Example 24]
12,4.16,O=C(c1sccc1I)N(Cc1ncc(Cl)cc1Cl)C1CC1 [Example 26]
13,2.56,Cc1nn(C)c(F)c1C(=O)N(Cc1ncc(Cl)cc1Cl)C1CC1 [Example 29]
14,2.21,COc1nn(C)cc1C(=O)N(Cc1ncc(Cl)cc1Cl)C1CC1 [Example 34]
15,2.39,Cc1nn(C)c(F)c1C(=O)N(Cc1ccc(Oc2ccccc2)nc1)C1CC1 [Example 35]
16,2.61,Cn1cc(C(=O)N(Cc2ccc(Oc3ccccc3)nc2)C2CC2)c(C(F)F)n1 [Example 36]
17,1.25,Cc1nn(C)cc1C(=O)N(C1CC1)C(C)c1cnccn1 (stereo not shown) [Example 40]
18,1.47,CC(c1cnccn1)N(C(=O)c1cn(C)nc1C(F)F)C1CC1 (stereo not shown) [Example 42]
19,2.39,Cn1cc(C(=O)N(Cc2ccc(Cl)cn2)C2CC2)c(C(F)(F)F)n1 [Example 48]
20,1.98,CCOc1nn(C)cc1C(=O)N(Cc1ccc(Cl)cn1)C1CC1 [Example 49]
21,3.36,Cc1cc(C(=O)N(Cc2ccc(Cl)cn2)C2CC2)c(C(F)(F)F)o1 [Example 50]
22,2.93,Cc1nc(C(F)(F)F)c(C(=O)N(Cc2ccc(Cl)cn2)C2CC2)s1 [Example 51]
23,2.54,Cc1nc(C(F)F)c(C(=O)N(Cc2ccc(Cl)cn2)C2CC2)s1 [Example 52]
24,2.08,Cn1cc(C(=O)N(Cc2ccc(Cl)cn2)C2CC2)c(C(F)F)n1 [Example 54]

row,logP,SMILES
1,2.75,COc1ccc(CN(C(=O)c2ccsc2I)C2CC2)cn1 [Example 55]
2,1.97,COc1ccc(CN(C(=O)c2ccco2)C2CC2)cn1 [Example 56]
3,1.89,COc1ccc(CN(C(=O)c2nc(C)oc2C)C2CC2)cn1 [Example 57]
4,1.53,COc1ccc(CN(C(=O)c2cn(C)nc2C)C2CC2)cn1 [Example 58]
5,2.46,COc1ccc(CN(C(=O)c2occc2C)C2CC2)cn1 [Example 59]
6,1.64,COc1ccc(CN(C(=O)c2c(C)nn(C)c2F)C2CC2)cn1 [Example 60]
7,1.8,COc1ccc(CN(C(=O)c2cn(C)nc2C(F)F)C2CC2)cn1 [Example 61]
8,1.72,COc1ccc(CN(C(=O)c2ocnc2C)C2CC2)cn1 [Example 62]
9,2.08,COc1ccc(CN(C(=O)c2cc(C)on2)C2CC2)cn1 [Example 63]
10,1.74,COc1ccc(CN(C(=O)c2cc(C)n(C)n2)C2CC2)cn1 [Example 64]
11,2.82,Cc1nc(C(F)(F)F)ccc1CN(C(=O)c1cn(C)nc1C(F)(F)F)C1CC1 [Example 85]
12,2.51,Cc1nc(C(F)(F)F)ccc1CN(C(=O)c1cn(C)nc1C(F)F)C1CC1 [Example 87]
13,2.02,COc1nn(C)cc1C(=O)N(Cc1ccc(C(F)(F)F)nc1C)C1CC1 [Example 88]
14,3.21,O=C(c1ccsc1I)N(Cc1c(Cl)cncc1Cl)C1CC1 [Example 97]
15,1.8,Cc1nn(C)cc1C(=O)N(Cc1c(Cl)cncc1Cl)C1CC1 [Example 100]
16,2.87,Cc1ccoc1C(=O)N(Cc1c(Cl)cncc1Cl)C1CC1 [Example 101]
17,1.88,Cn1cc(C(=O)N(Cc2c(Cl)cncc2Cl)C2CC2)c(C(F)F)n1 [Example 103]
18,2,Cc1cc(C(=O)N(Cc2c(Cl)cncc2Cl)C2CC2)nn1C [Example 107]
19,1.18,COc1ccnc(CN(C(=O)c2cn(C)nc2C(F)(F)F)C2CC2)c1OC [Example 108]
20,1.47,COc1ccnc(CN(C(=O)c2ccsc2I)C2CC2)c1OC [Example 109]
21,1.2,COc1ccnc(CN(C(=O)c2sc(C)nc2C(F)F)C2CC2)c1OC [Example 110]
22,1.44,COc1ccnc(CN(C(=O)c2nn(C)nc2C(F)(F)F)C2CC2)c1OC [Example 111]
23,1.32,COc1ccnc(CN(C(=O)c2cn(C)cc2C(F)(F)F)C2CC2)c1OC [Example 112]

# Same assay, conditions: reversed-phase HPLC column (C18), C18, 40° C., 0.1% aqueous formic acid and acetonitrile, gradient 10% to 90% acetonitrile
row,chromatographic logP,SMILES
1,0.92,"CCC(c1ccncc1)N(C(=O)c1c(C)nn(C)c1F)C1CC1 (stereo not shown) [Example 17, N-cyclopropyl-N-[1-pyridin-4-yl-propyl]-5-fluoro-1,3-dimethyl-1H-pyrazole-4-carboxamide]"
2,1.65,"COc1ccnc(CN(C(=O)c2c(C)nn(C)c2F)C2CC2)c1OC [Example 113, N-cyclopropyl-N-[(3,4-dimethoxypyridin-2-yl)methyl]-5-fluoro-1,3-dimethyl-1H-pyrazole-4-carboxamide]"

# From patent US7803821B2, “Fungicide N-cycloalkyl-carboxamide, thiocarboxamide and N-substituted-carboximidamide derivatives” (Bayer Cropscience SA, priority 2006, dated 2010)
